Test results taken from patent US20030217389A1, “Novel peptides and methods of use” (priority 2002, published 2003).

What was measured:
[1] = test system: tomato apical meristems; experiment: Growth of excised tomato apical meristems in liquid culture; type: cell-based, Lycopersicon esculentum; conditions: for growth of isolated tomato apical meristems: 100 nM peptide in liquid media, evaluated on the 16th day, compared with control peptide
Experimental: Tomato plants (Lycopersicon esculentum cv. Castlemart) were grown in a growth chamber with 17 hours of light (300 μmol m^−2s^−1) per day at 28° C. and seven hour nights at 18° C. Apical meristems were excised from shoot tips of two week old tomato plants. Shoot tips (1-2 cm long) were surface sterilized using 70% ethanol solution for 20-30 seconds, followed by a 20 minute incubation in a 1.5% (v/v) commercial bleach solution. Shoot tips were washed once in sterilized water after the ethanol treatment, and four times after bleaching. Apical meristems (including meristematic tissue, dome, with a leaf primordium) were carefully isolated under a stereoscope.
Isolated meristems were immediately inoculated into a liquid media (MS salts and vitamin mixture powder (Life Technologies) and 20 g/L of sucrose) containing either tomato RALF (100 nM) (SEQ ID NO: 4), or a control peptide (100 nM) that was not capable of stimulating meristem growth. Four meristems were inoculated in a 125 mL Erlenmeyer flask containing 10 mL of media, and flasks were gently shaken at 60 rpm. Sixteen meristems were tested for each treatment in four separate flasks. The liquid media was replaced with fresh media on the 5th, 12th and 14th days of the experiment. The experiment was evaluated and terminated on the 16th day.

[2] = test system: liquid tomato cell culture; experiment: Alkalinization of a liquid tomato cell culture; type: cell-based
[3] = test system: Tobacco suspension cells; experiment: Plant cell culture alkalinization assay; type: cell-based
Experimental: Plant Cell Culture Alkalinization Assay: Tobacco suspension cells were maintained in MS media. The media was adjusted to pH 5.6 with KOH. Three ml aliquots of one week old cultures were transferred into 35 ml of media in 125 ml flasks and placed on an orbital shaker at 160 rpm in the dark for growth. Cells were used for assay 3-5 days after transfer (cell density was approximately 0.5 to 1.5×10^6 cells/ml). One ml of cells was aliquoted into each well of 24-well cell culture cluster plates (Costar, number 3527, Corning Incorporated, Corning, N.Y.) and allowed to equilibrate on an orbital shaker at 160 rpm for 1 hr. Aliquots (1 to 10 μl) of fractions to be tested were added to the cells and the increasing pH change of the medium (medium alkalinization) was detected with time using an Orion Model EA940 pH meter with an Orion semi-micro pH electrode (Catalog number 8103BN, Orion, Beverly, Mass.).

Sequence	growth of isolated tomato apical meristems [1]	growth of isolated tomato apical meristems ([1]; listed as tomato RALF (SEQ ID NO: 4))	rate of meristem tissue growth in the presence versus the absence of the polypeptide ([1]; experiments of Example 3)	alkalinization of a liquid tomato cell culture [2]	alkalinization of the medium of the liquid plant cell culture (pH change) [3]
ATKKYISYGALQKNSVPCSRRGASYYNCKPGAQANPYTRGCSAITRCRS (listed as Lycopersicon esculentum) [tomato RALF polypeptide (SEQ ID NO: 4), chemically synthesized tomato RALF polypeptide]	stimulates the growth	stimulated growth	at least twice as fast	induce alkalinization	–
ATKKYISYGALQKNSVPCSRRGASYYNCKPGAQANPYSRGCSAITRCRS (listed as Nicotiana tabacum) [tobacco RALF polypeptide, approximately 5 kDa polypeptide isolated from tobacco leaves]	–	–	–	–	rapidly induced alkalinization
